Measurements from ChEMBL document CHEMBL1201862, “PubChem BioAssay data set” (2004).
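Growth conditions: 96-well plates. Treatment: test compound, 48 hours, 5 concentrations. Analysis: linear interpolation between bracketing concentrations; unreached endpoints set to highest concentration. GI50: concentration for 50% inhibition of growth.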 Active and inactive are the calls of the source. Rule as the data show it: active = GI50 up to about 1.1 µM and inactive = higher.

Tests used:
Assay in all cases: inhibition of tumour cell growth, NCI panel, 48 h
HOP-92 = test system: HOP-92
HCC 2998 = test system: HCC 2998
MDA-MB-435 = test system: MDA-MB-435
NCI-H23 = test system: NCI-H23
EKVX = test system: EKVX
KM12 = test system: KM12
SF-539 = test system: SF-539
SK-OV-3 = test system: SK-OV-3
HT-29 = test system: HT-29
RPMI-8226 = test system: RPMI-8226
CAKI-1 = test system: CAKI-1
MDA-MB-231 = test system: MDA-MB-231
SNB-19 = test system: SNB-19
LOX IMVI = test system: LOX IMVI
RXF 393 = test system: RXF 393
SF-268 = test system: SF-268
CCRF-CEM = test system: CCRF-CEM
NCI/ADR-RES = test system: NCI/ADR-RES
SK-MEL-5 = test system: SK-MEL-5
OVCAR-5 = test system: OVCAR-5
HCT-15 = test system: HCT-15
NCI-H460 = test system: NCI-H460
U-251 = test system: U-251
OVCAR-8 = test system: OVCAR-8
SR = test system: SR
Hs-578T = test system: Hs-578T
MCF7 = test system: MCF7
786-0 = test system: 786-0
NCI-H226 = test system: NCI-H226
MDA-N = test system: MDA-N
IGROV-1 = test system: IGROV-1
SW-620 = test system: SW-620
ACHN = test system: ACHN
MOLT-4 = test system: MOLT-4
K562 = test system: K562
Malme-3M = test system: Malme-3M
SNB-75 = test system: SNB-75
NCI-H522 = test system: NCI-H522
UACC-62 = test system: UACC-62
TK-10 = test system: TK-10
UO-31 = test system: UO-31
M14 = test system: M14
SK-MEL-28 = test system: SK-MEL-28
A498 = test system: A498
HCT-116 = test system: HCT-116
HOP-62 = test system: HOP-62
OVCAR-3 = test system: OVCAR-3
BT-549 = test system: BT-549
T47D = test system: T47D
DU-145 = test system: DU-145
HL-60 = test system: HL-60
SF-295 = test system: SF-295
COLO 205 = test system: COLO 205
SN12C = test system: SN12C
OVCAR-4 = test system: OVCAR-4
SK-MEL-2 = test system: SK-MEL-2
UACC-257 = test system: UACC-257
A549 = test system: A549

## COC(=O)/C=C1/OC(c2ccccc2)=C(C)C1=O
HOP-92
  GI50: 13.2 µM (inactive)
HCC 2998
  GI50: 16.6 µM (inactive)
MDA-MB-435
  GI50: 13.9 µM (inactive)
NCI-H23
  GI50: 20.2 µM (inactive)
EKVX
  GI50: 17.9 µM (inactive)
KM12
  GI50: 14.1 µM (inactive)
SF-539
  GI50: 17.4 µM (inactive)
SK-OV-3
  GI50: 10.7 µM (inactive)
HT-29
  GI50: 1.98 µM (inactive)
RPMI-8226
  GI50: 2.19 µM (inactive)
CAKI-1
  GI50: 4.05 µM (inactive)
MDA-MB-231
  GI50: 4.86 µM (inactive)
SNB-19
  GI50: 16.4 µM (inactive)
LOX IMVI
  GI50: 1.28 µM (inactive)
RXF 393
  GI50: 10.6 µM (inactive)
SF-268
  GI50: 17.9 µM (inactive)
CCRF-CEM
  GI50: 3.62 µM (inactive)
NCI/ADR-RES
  GI50: 20.9 µM (inactive)
SK-MEL-5
  GI50: 13.6 µM (inactive)
OVCAR-5
  GI50: 16 µM (inactive)
HCT-15
  GI50: 4.79 µM
NCI-H460
  GI50: 20 µM (inactive)
U-251
  GI50: 14.1 µM (inactive)
OVCAR-8
  GI50: 6.08 µM (inactive)
SR
  GI50: 2.61 µM (inactive)
Hs-578T
  GI50: 27.5 µM (inactive)
MCF7
  GI50: 3.81 µM (inactive)
786-0
  GI50: 10.2 µM (inactive)
NCI-H226
  GI50: 15.8 µM (inactive)
MDA-N
  GI50: 1.36 µM (inactive)
IGROV-1
  GI50: 14.1 µM (inactive)
SW-620
  GI50: 2.4 µM (inactive)
ACHN
  GI50: 13 µM (inactive)
MOLT-4
  GI50: 3.28 µM (inactive)
K562
  GI50: 3.2 µM (inactive)
Malme-3M
  GI50: 13.3 µM (inactive)
SNB-75
  GI50: 23.6 µM (inactive)
NCI-H522
  GI50: 12.6 µM (inactive)
UACC-62
  GI50: 4.12 µM (inactive)
TK-10
  GI50: 15.7 µM (inactive)
UO-31
  GI50: 13.8 µM (inactive)
M14
  GI50: 11.7 µM (inactive)
SK-MEL-28
  GI50: 16.8 µM (inactive)
A498
  GI50: 18.7 µM (inactive)
HCT-116
  GI50: 4.18 µM (inactive)
HOP-62
  GI50: 16 µM (inactive)
OVCAR-3
  GI50: 20 µM (inactive)
BT-549
  GI50: 2.86 µM (inactive)
T47D
  GI50: 20.1 µM (inactive)
DU-145
  GI50: 19.3 µM (inactive)
HL-60
  GI50: 1.97 µM (inactive)
SF-295
  GI50: 13.3 µM (inactive)
COLO 205
  GI50: 17.5 µM (inactive)

## COc1ccc(N[S+]([O-])c2c(C)cc(C)cc2C)cc1 (configuration not stated)
HCC 2998
  GI50: 19.5 µM (inactive)
MDA-MB-435
  GI50: 21.2 µM (inactive)
NCI-H23
  GI50: > 100 µM (inactive)
EKVX
  GI50: 43.8 µM (inactive)
KM12
  GI50: 22.5 µM (inactive)
SF-539
  GI50: 19.9 µM (inactive)
HT-29
  GI50: 46.1 µM (inactive)
RPMI-8226
  GI50: 45.3 µM (inactive)
MDA-MB-231
  GI50: 80.2 µM (inactive)
SNB-19
  GI50: > 100 µM (inactive)
LOX IMVI
  GI50: 57 µM (inactive)
SF-268
  GI50: 21.6 µM (inactive)
CCRF-CEM
  GI50: > 100 µM (inactive)
NCI/ADR-RES
  GI50: 49.8 µM (inactive)
SK-MEL-5
  GI50: 23.8 µM (inactive)
OVCAR-5
  GI50: > 100 µM (inactive)
HCT-15
  GI50: 18.2 µM
NCI-H460
  GI50: 35.6 µM (inactive)
U-251
  GI50: 50 µM (inactive)
OVCAR-8
  GI50: 72.1 µM (inactive)
SR
  GI50: 35.7 µM (inactive)
Hs-578T
  GI50: 34.4 µM (inactive)
MCF7
  GI50: 56 µM (inactive)
786-0
  GI50: 89.5 µM (inactive)
NCI-H226
  GI50: 36.2 µM (inactive)
MDA-N
  GI50: 93.1 µM (inactive)
IGROV-1
  GI50: 22.5 µM (inactive)
SW-620
  GI50: 48.2 µM (inactive)
ACHN
  GI50: 43.7 µM (inactive)
SN12C
  GI50: > 100 µM (inactive)
OVCAR-4
  GI50: 86.5 µM (inactive)
MOLT-4
  GI50: 40.1 µM (inactive)
SK-MEL-2
  GI50: > 100 µM (inactive)
K562
  GI50: 42.1 µM (inactive)
Malme-3M
  GI50: 20.3 µM (inactive)
NCI-H522
  GI50: 19.1 µM (inactive)
UACC-62
  GI50: 33.7 µM (inactive)
TK-10
  GI50: > 100 µM (inactive)
UO-31
  GI50: 18.2 µM (inactive)
M14
  GI50: 77.8 µM (inactive)
UACC-257
  GI50: 70.1 µM (inactive)
A549
  GI50: 26.4 µM (inactive)
SK-MEL-28
  GI50: > 100 µM (inactive)
HCT-116
  GI50: 14.4 µM (inactive)
HOP-62
  GI50: 72.1 µM (inactive)
OVCAR-3
  GI50: 61.9 µM (inactive)
BT-549
  GI50: 1.79 µM (inactive)
T47D
  GI50: 34 µM (inactive)
DU-145
  GI50: 93.3 µM (inactive)
HL-60
  GI50: 33 µM (inactive)
SF-295
  GI50: > 100 µM (inactive)
COLO 205
  GI50: > 100 µM (inactive)

## Cn1c2ccccc2n2c(=O)c(-c3ccc(Cl)cc3)nnc12
HOP-92
  GI50: > 100 µM (inactive)
HCC 2998
  GI50: > 100 µM (inactive)
MDA-MB-435
  GI50: > 100 µM (inactive)
NCI-H23
  GI50: > 100 µM (inactive)
EKVX
  GI50: > 100 µM (inactive)
KM12
  GI50: > 100 µM (inactive)
SF-539
  GI50: 43.3 µM (inactive)
HT-29
  GI50: > 100 µM (inactive)
CAKI-1
  GI50: > 100 µM (inactive)
MDA-MB-231
  GI50: 51.2 µM (inactive)
SNB-19
  GI50: > 100 µM (inactive)
LOX IMVI
  GI50: > 100 µM (inactive)
RXF 393
  GI50: > 100 µM (inactive)
SF-268
  GI50: > 100 µM (inactive)
CCRF-CEM
  GI50: > 100 µM (inactive)
NCI/ADR-RES
  GI50: > 100 µM (inactive)
SK-MEL-5
  GI50: > 100 µM (inactive)
OVCAR-5
  GI50: > 100 µM (inactive)
HCT-15
  GI50: > 100 µM
NCI-H460
  GI50: > 100 µM (inactive)
U-251
  GI50: > 100 µM (inactive)
OVCAR-8
  GI50: > 100 µM (inactive)
SR
  GI50: > 100 µM (inactive)
Hs-578T
  GI50: > 100 µM (inactive)
MCF7
  GI50: > 100 µM (inactive)
786-0
  GI50: > 100 µM (inactive)
NCI-H226
  GI50: > 100 µM (inactive)
MDA-N
  GI50: > 100 µM (inactive)
IGROV-1
  GI50: > 100 µM (inactive)
SW-620
  GI50: > 100 µM (inactive)
ACHN
  GI50: > 100 µM (inactive)
SN12C
  GI50: > 100 µM (inactive)
OVCAR-4
  GI50: 68.4 µM (inactive)
MOLT-4
  GI50: > 100 µM (inactive)
SK-MEL-2
  GI50: 83.4 µM (inactive)
Malme-3M
  GI50: > 100 µM (inactive)
SNB-75
  GI50: > 100 µM (inactive)
NCI-H522
  GI50: > 100 µM (inactive)
TK-10
  GI50: > 100 µM (inactive)
UO-31
  GI50: > 100 µM (inactive)
M14
  GI50: > 100 µM (inactive)
UACC-257
  GI50: > 100 µM (inactive)
A549
  GI50: > 100 µM (inactive)
SK-MEL-28
  GI50: > 100 µM (inactive)
A498
  GI50: > 100 µM (inactive)
HCT-116
  GI50: > 100 µM (inactive)
BT-549
  GI50: > 100 µM (inactive)
T47D
  GI50: > 100 µM (inactive)
DU-145
  GI50: > 100 µM (inactive)
HL-60
  GI50: > 100 µM (inactive)
SF-295
  GI50: > 100 µM (inactive)
COLO 205
  GI50: > 100 µM (inactive)
